This is an account of results in patent US20260207627A1, “PHYTOECDYSONES FOR USE IN THE TREATMENT OF INFLAMMATORY RESPIRATORY DISEASES” (BIOPHYTIS, priority 2022, published 2026).

Structures are written as SMILES.

Test [1] has as its system mouse model of severe allergic asthma. The experiment in a line: Bronchoalveolar fluid cellularity. Type of test: in vivo. As for the experimental part: Seven-week old mice were sensitized by cutaneous route to house dust mite (HDM) extracts on DO, 7, 14 and 21. After this skin sensitization phase to the allergen, the mice receive the allergen by the nasal route (challenge phase) on D27, 28, 29, 34, 35 and 36 to induce bronchial exacerbation. This severe allergic asthma model has been characterized as mimicking human pathology ([…] et al. Thorax 2021). BIG101 (batch RL11T1204A0) was administered to the mice in drinking water 7 days a week, at a dose of 50 mg/kg/day. The drinking water containing BI0101 was replaced twice weekly until the animals were sacrificed. On […], sterile PBS (between 200 μL and 1 mL) was administered by the intratracheal route to the mice using a catheter. The bronchoalveolar fluid (BALF) cells and supernatant are retrieved and separated by centrifugation. The total number of cells was counted on Kova slides by optical microscopy. The cellularity of each sample was evaluated by calculating the ratio of the total number of cells counted, divided by the volume of bronchoalveolar fluid. The cellularity represents the infiltrate of immune cells (macrophages, lymphocytes, eosinophils and neutrophils).

For another test, the system named is 5-HTT. The experiment in a line: Real-time PCR gene expression in bronchi after chronic treatment. Type of test: in vivo, mouse. As to conditions: healthy or asthmatic mice, chronic treatment 50 mg/kg/day. The method, then: Seven-week old mice were sensitized by cutaneous route to house dust mite (HDM) extracts on DO, 7, 14 and 21. After this skin sensitization phase to the allergen, the mice receive the allergen by the nasal route (challenge phase) on D27, 28, 29, 34, 35 and 36 to induce bronchial exacerbation. This severe allergic asthma model has been characterized as mimicking human pathology ([…] et al. Thorax 2021). BIG101 (batch RL11T1204A0) was administered to the mice in drinking water 7 days a week, at a dose of 50 mg/kg/day. The drinking water containing BI0101 was replaced twice weekly until the animals were sacrificed.

In test [2] the test system is bronchial ring. The experiment in a line: Acute administration in the vessel containing the bronchial ring, contractile response to serotonin. The arrangement: species or system mouse. The note with it: p=ns vs internal control without BI0101.
The test system of test [3] is mouse model of severe allergic asthma. The test can be described thus: Histological analysis of lung sections stained with hematoxylin and eosin. In kind it is in vivo. As to conditions: chronic treatment 50 mg/kg/day. As for the experimental part: (§1) Seven-week old mice were sensitized by cutaneous route to house dust mite (HDM) extracts on DO, 7, 14 and 21. After this skin sensitization phase to the allergen, the mice receive the allergen by the nasal route (challenge phase) on D27, 28, 29, 34, 35 and 36 to induce bronchial exacerbation. This severe allergic asthma model has been characterized as mimicking human pathology (Dilasser et al. Thorax 2021).
(§2) BIG101 (batch RL11T1204A0) was administered to the mice in drinking water 7 days a week, at a dose of 50 mg/kg/day. The drinking water containing BI0101 was replaced twice weekly until the animals were sacrificed.

The subject of test [4] is bronchial ring. The test can be described thus: Acute administration in the vessel containing the bronchial ring, contractile response to methacholine. Also on record: species or system mouse. The note with it: p=ns vs internal control without BI0101.
In test [5] the test system is mouse model of severe allergic asthma. The experiment in a line: Respiratory function by plethysmography (Penh) in response to methacholine. In kind it is in vivo. As for the experimental part:
as §1, §2
In order to study whether the reduction of inflammation in BALF could induce functional improvement after severe asthma induction, respiratory function was evaluated by plethysmography. This technique makes it possible to carry out a longitudinal study of respiratory capacity and also expiratory pause time (Penh) non-invasively. Breathing-induced flow and pressure changes are measured before and after exposure to nebulization with increasing doses of NaCl followed by methacholine. […]
The pressure variations measured relative to a reference chamber make it possible to define various respiratory parameters such as inspiratory and expiratory pressure peaks and times, and also a unitless parameter referred to as Penh (enhanced Pause) which makes it possible to evaluate bronchoconstriction. Indeed, the Penh value, calculated from the pressure signal in the chamber (Pb), is an important index to obtain, because changes in the Penh value evolve in parallel with those of respiratory resistance and therefore it represents a predictive parameter of changes in resistive properties of the respiratory system (Hamelmann et al., 1997; Bergren, 2001; Onclinx et al., 2003). The following values were calculated from the filtered Pb: the maximum change in Pb during expiration (PEP for “Peak Expiratory Pressure”), the maximum change in Pb during inspiration (PIP for “Peak Inspiratory Pressure”), and the time interval (TR). The Penh value was then calculated as follows: […]

Test [6] deals with murine bronchial ring. The test can be described thus: Ex vivo bronchial ring contraction (Mulvany myograph) after chronic treatment, serotonin-induced bronchoconstriction. In kind it is in vivo, mouse. As to conditions: asthmatic mice. As for the experimental part:
as §1, §2
(§3) The evaluation of the effect of chronic administration of BI0101 treatment on ex vivo murine bronchial ring contraction was carried out in an isolated organ chamber (isometric tension measurement, Mulvany myograph, DMT, Hinnerup, Denmark) (André-Grégoire et al., 2018).
(§4) The bronchi are collected, cleaned, cut into rings and set up in the Mulvany myograph. The rings are pre-stretched and then stimulated with 60 mM KCl until the contractile response amplitude has stabilized (2 or 3 stimulations) before the start of each experimental protocol. […]

Test [7] deals with murine bronchial ring. The test can be described thus: Ex vivo bronchial ring contraction (Mulvany myograph) after chronic treatment, methacholine-induced bronchoconstriction. As to conditions: asthmatic mice. Type of test: in vivo, mouse. The method, then:
as §1, §2, §3, §4

A further test deals with 5-HT1B. The experiment in a line: Real-time PCR gene expression in bronchi after chronic treatment. In kind it is in vivo, mouse. The note with it: healthy or asthmatic mice, chronic treatment 50 mg/kg/day. The method, then:
(§5) Seven-week old mice were sensitized by cutaneous route to house dust mite (HDM) extracts on DO, 7, 14 and 21. After this skin sensitization phase to the allergen, the mice receive the allergen by the nasal route (challenge phase) on D27, 28, 29, 34, 35 and 36 to induce bronchial exacerbation. This severe allergic asthma model has been characterized as mimicking human pathology ([…] et al. Thorax 2021). BIG101 (batch RL11T1204A0) was administered to the mice in drinking water 7 days a week, at a dose of 50 mg/kg/day. The drinking water containing BI0101 was replaced twice weekly until the animals were sacrificed. On […], the bronchi of healthy non-asthmatic mice (control; n=10), non-asthmatic control mice treated with BI0101 (controls+BIO101; n=10), asthmatic mice (Asthma; n=10) and asthmatic mice treated with BI0101 (Asthma+BIO101; n=10) were collected. After RNA extraction from these tissues (Trizol©, ThermoFisher cat. 15596018), an analysis of serotonin receptor (5-HT1A, 5-HT1B, 5-HT2A, 5-HT2B and 5-HT7) and serotonin transporter (5HTT) expression was evaluated with real-time PCR (TaqManTM, Universal PCR MasterMix, ThermoFisher cat. 4304437). The list of ThermoFisher Scientific commercial test references used for real-time PCR to obtain the results for each of the genes is given in Table 1 below: […]

A further test relates to 5-HT2B. Described as above. Type of test: in vivo, mouse. The note with it: healthy or asthmatic mice, chronic treatment 50 mg/kg/day. As for the experimental part: as §5
The next test deals with 5-HT2A. The test is described as above. In kind it is in vivo, mouse. As to conditions: healthy or asthmatic mice, chronic treatment 50 mg/kg/day. The method, then:
as §5

The next test relates to 5-HT1A receptor. Described as above. The note with it: chronic treatment 50 mg/kg/day, D38, p<0.05. In kind it is in vivo, mouse. As for the experimental part:
as §5

A further test has as its system 5-HT7. The test is described as above. As to conditions: healthy or asthmatic mice, chronic treatment 50 mg/kg/day. In kind it is in vivo, mouse. As for the experimental part:
as §5

Setting [8] is: chronic treatment 50 mg/kg/day in drinking water, D38, Asthma vs Asthma+BIO101 p<0.0001.

With `CC(C)(O)CC[C@@H](O)[C@](C)(O)[C@H]1CC[C@@]2(O)C3=CC(=O)[C@@H]4C[C@@H](O)[C@@H](O)C[C@]4(C)[C@H]3CC[C@]12C` [BI0101, 20-hydroxyecdysone], the “change of BALF cellularity (inflammation present in BALFs)” value in test [1] (asthmatic mice treated with BI0101 vs asthmatic mice, D38, p=ns) is recorded as −39.8%. Moreover, the “BALF cellularity (total number of cells divided by volume of bronchoalveolar fluid)” value in test [1] (control mice treated with BI0101, D38, p=ns vs untreated control) is 260±64. Besides, in the test on 5-HTT, the “5-HTT (serotonin transporter) gene expression in bronchi” value is listed as “does not induce any modification”. In the test on bronchial ring [2], the “contractile response to serotonin” value is reported as 0.29±0.14 mN. Besides, in test [3] (asthmatic mice), the “increase in bronchial muscle mass and epithelial barrier dysfunction associated with severe asthma” value was “appear to be less substantial”; the “peribronchial and perivascular inflammation” value is on record as “reduces”. Besides, the “effect on lung histology” value in [3] (healthy mice (control)) is reported as “has no effect”. For the same compound, the “contractile response to methacholine” value in the test with bronchial ring [4] is on record as 0.41±0.25 mN. Besides, the Penh value in test [5] (asthmatic mice treated with BI0101, 50 mg/kg/day, 40 mg/ml of methacholine) was found to be 9.81±1.1. In addition, the “reduction of the Penh value” in [5] (asthmatic mice treated with BI0101 vs asthmatic mice, 40 mg/ml of methacholine, p<0.05) is 18.1%. Also, in [5] (healthy control mice treated with BI0101), the “effect on respiratory function (Penh, methacholine aerosol)” value is on record as “does not appear to have an effect”. In the test with murine bronchial ring [6] (setting [8]), the serotonin-induced bronchoconstriction entry was “significantly reduces”. The “prevention of exacerbated bronchial airway reactivity (serotonin)” value with murine bronchial ring [6] (chronic treatment 50 mg/kg/day, Asthma+BIO101 vs Control p=0.9997) is given as “completely prevents”. For the same compound, the methacholine-induced bronchoconstriction result with murine bronchial ring [7] (setting [8]) was “significantly decreases”. The “prevention of exacerbated bronchial airway reactivity (methacholine)” value in the test with murine bronchial ring [7] (chronic treatment 50 mg/kg/day, Asthma+BIO101 vs Control p=0.0025) was “does not prevent”. In the test with 5-HT1B, the “5-HT1B gene expression in bronchi” value is reported as “does not induce any modification”. Besides, in the test with 5-HT2B, the “5-HT2B gene expression in bronchi” value is “does not induce any modification”. In addition, the “5-HT2A gene expression in bronchi” value in the test with 5-HT2A is recorded as “does not induce any modification”. Also, the “5-HT1A receptor gene expression decrease in bronchi” value with 5-HT1A receptor (asthmatic mice (asthma+BIO101)) is −69±3%. The “5-HT1A receptor gene expression decrease in bronchi” value in the test on 5-HT1A receptor (healthy mice (control+BIO101)) is −49%±12%. In addition, in the test with 5-HT7, the “5-HT7 gene expression in bronchi” value is reported as “does not induce any modification”.
